Each block holds one compound with its values, some of them ahead of it.
Key:
Assay in all cases: ITC
[1] = test system: NC423 (DNA, aptamer) CTTACGACTTGTTCTGAGGGTCAACGGTGGTGTAGTTAGTCGTAAG
[2] = test system: NC1947 (DNA, aptamer) CTTACGACACAGGGCGTGGAGTGGCTGGGCTTCAAGGGGTCGTAAG
[3] = test system: NCB (DNA, aptamer) CTTACGACACAGGGCGTGGAGGAGCTGGGCTATTAGGGGTCGTAAG
[4] = test system: OM7 (DNA, aptamer) GGGACGACATCGTAGGGGCACACGCTTAACGGGCTGATGTCGTCCC
[5] = test system: FXd (DNA, aptamer) GGGACGACGGTGTGGGGGTAGGGGGTGTGGGAAGCGGCGTCGTCCC; settings: 23 °C; selection buffer (Supplementary Table S1); one-site model

KD [1]: 22 nM
KD [2]: 123 nM
KD [3]: 1.0 µM
Structure (SMILES): COC(=O)[C@H]1[C@@H](OC(=O)c2ccccc2)C[C@@H]2CC[C@H]1N2C

KD [4]: 1.4 µM
Structure (SMILES): COc1ccc2c3c1O[C@H]1C(=O)CC[C@@]4(O)[C@@H](C2)N(C)CC[C@]314

KD [5]: 27.4 µM
Structure (SMILES): Cc1c(Nc2ncccc2C(=O)O)cccc1C(F)(F)F
